{"source": "paper PMC8619914", "about": "“Development of Novel Peptides for the Antimicrobial Combination Therapy against Carbapenem-Resistant Acinetobacter baumannii Infection” (Pharmaceutics, 2021)", "key": {"HEK-293 cells": {"test_system": "HEK-293 cells", "assay": "Cytotoxicity, WST-8 Cell Proliferation Assay", "type": "cell-based, human", "settings": "at its MIC, 24 h and 48 h", "procedure": "(§1) Human embryonic kidney (HEK)-293 cells, purchased from Korean cell line bank (Seoul, Korea) were cultured in Dulbecco’s modified Eagle’s medium (DMEM) (Welgene, Gyeong-san, Korea) with 10% fetal bovine serum, 1% penicillin-streptomycin at 37 °C in a humidified 5% CO2 incubator as described previously. The cytotoxicity of the six PapMA peptides and melittin was determined using WST-8 Cell Proliferation Assay Kit (Biomax Co, Ltd., Seoul, Korea), according to the manufacturer’s instructions. […] The absorbance was measured at 450 nm using a SpectraMAX microplate reader (Molecular Devices).\nFigure 4 Cytotoxicity of PapMA analogs. (A) Cytotoxicity of PapMA and its analogs against HEK-293 cell. […] (B) Hemolysis activity of PapMA analogs against sRBC. The peptide was serially diluted and incubated with sRBC for 1 h with melittin as a control. Statistical analysis was performed using two-way ANOVA with Dunnett’s comparison test. The values are expressed as the mean ± SEM of three independent experiments and are statistically significant at ** p < 0.01; and *** p < 0.001. ns, not significant."}, "intact CRAB C1": {"test_system": "intact CRAB C1", "assay": "Membrane depolarization, diSC3-5, intact cells", "type": "cell-based, carbapenem-resistant Acinetobacter baumannii", "settings": "peptide 4 μg·mL^−1, 100% = 1% triton X-100", "procedure": "The membrane depolarization activity of each AMPs at varying concentrations (1–16 μg·mL^−^1) against CRAB C1 intact cells were measured using 3,3′-dipropylthiadicarbocyanine iodide (diSC3-5). CRAB C1 was washed two times in washing buffer (5 mM HEPES, 20 mM glucose, pH 7.4), the experiment buffer was changed (5 mM HEPES, 20 mM glucose, 0.1 M KCl, pH 7.4), and diSC3-5 dye was added. As a control, 100% depolarization was obtained by treating CRAB C1 with 1% triton X-100 [33]. Spheroplast cells were prepared by the osmotic shock, as previously described. […] The corresponding fluorescent were measured using RF-6000PC fluorescent spectrophotometer (Shimadzu Scientific Instruments, Kyoto, Japan).\nFigure 3 CRAB C1 membrane destruction caused by PapMA analogs. The concentration dependent depolarization of (A) intact CRAB C1 and its (B) spheroplast induced by PapMA and its analogs, determined using the membrane potential-sensitive fluorescent dye diSC3-5. Dye release was monitored by measuring fluorescence, at an excitation wavelength of 654 nm and an emission wavelength of 670 nm."}, "HaCaT cells": {"test_system": "HaCaT cells", "assay": "Cytotoxicity, WST-8 Cell Proliferation Assay", "type": "cell-based, human", "settings": "at its MIC, 24 h and 48 h", "procedure": "as §1\nFigure 10 Cytotoxicity of PapMA-3 (A) Cytotoxicity of PapMA-3 against HEK-293 cells at 24 h and 48 h. (B) Cytotoxicity of PapMA-3 against HaCaT cell at 24 h and 48 h. Statistical analysis was performed using two-way ANOVA with Dunnett’s comparison test. The values are expressed as the mean ± SEM of three independent experiments and are statistically significant at * p < 0.05; *** p < 0.001; ns, not significant."}, "[1]": {"test_system": "Gram-negative bacterial strains", "assay": "organism not typed", "from_the_text": "(§2) The Gram-negative bacterial strain Escherichia coli (KCTC 1682) and Gram-positive bacterial strain Staphylococcus aureus (KCTC 1621) were purchased from the Korean Collection for Type Cultures (Jeongeup, Korea). Acinetobacter baumannii (KCCM 40203) were purchased from Korea Culture Center of Microorganisms (Seoul, Korea). Additionally, five carbapenem-resistant Acinetobacter baumanii C1–C5 (CRAB C1–C5), which have the OXA-23 gene with carbapenem-resistance were collected from the patients with CRAB bacteremia, who presented symptoms and signs of infection at Korea University Anam Hospital (Seoul, Korea) (IRB registration no. 2020AN0157). The minimum inhibitory concentrations (MIC) of the AMP and antibiotics against the various bacterial strains were assessed using the serial dilution method on Muller–Hinton (MH) media, as described previously. […] Absorbance at 600 nm was measured using a SpectraMAX microplate reader (Molecular Devices, San Jose, CA, USA).\nGeometric means (GM) were calculated to compare the relative antimicrobial activities of the analogs against Gram-negative bacteria. […] Next, the antibacterial mechanisms of peptides were investigated."}, "CRAB C1 [2]": {"test_system": "CRAB C1", "procedure": "(§3) Antibacterial activity of PapMA-3 in combination with imipenem was measured against CRAB C1 in the presence of 50% human serum. The treated cells were incubated for 16 h at 37 °C, and the absorbance at 600 nm was measured using a SpectraMAX microplate reader (Molecular Devices)."}, "A. baumannii": {"test_system": "A. baumannii", "settings": "50% human serum in MH medium, 16 h, 37 °C; measure of serum stability", "procedure": "as §3"}, "CRAB C5": {"test_system": "CRAB C5", "assay": "microbe, parasite or virus in culture", "settings": "MH media, 2 × 10^5 CFU·mL^−1, 37 °C, 16 h, absorbance 600 nm", "from_the_text": "as §2\n(§4) Measurement of the minimum inhibitory concentrations (MIC) was conducted to determine the effect of the hydrophobicity of each antimicrobial peptide on its antimicrobial activity. MIC was defined as the minimum concentration that killed more than 99% of bacteria; it was measured against two standard Gram-negative bacteria (E. coli and A. baumanii), five clinically isolated CRAB (C1–C5), and one Gram-positive bacteria (S. aureus)."}, "CRAB C4": {"test_system": "CRAB C4", "assay": "microbe, parasite or virus in culture", "settings": "MH media, 2 × 10^5 CFU·mL^−1, 37 °C, 16 h, absorbance 600 nm", "from_the_text": "as §2, §4"}, "CRAB C1 [3]": {"test_system": "CRAB C1", "assay": "microbe, parasite or virus in culture", "settings": "16 h", "from_the_text": "as §2, §4"}, "[4]": {"test_system": "Acinetobacter baumannii (KCCM 40203)", "assay": "microbe, parasite or virus in culture", "settings": "16 h", "from_the_text": "as §2, §4"}, "CRAB C3": {"test_system": "CRAB C3", "assay": "microbe, parasite or virus in culture", "settings": "MH media, 2 × 10^5 CFU·mL^−1, 37 °C, 16 h, absorbance 600 nm", "from_the_text": "as §2, §4"}, "CRAB C2": {"test_system": "CRAB C2", "assay": "microbe, parasite or virus in culture", "settings": "MH media, 2 × 10^5 CFU·mL^−1, 37 °C, 16 h, absorbance 600 nm", "from_the_text": "as §2, §4"}, "[5]": {"settings": "MH media, 2 × 10^5 CFU·mL^−1, 37 °C, absorbance 600 nm"}}, "data": [{"smiles": "CC[C@H](C)[C@H](NC(=O)CN)C(=O)NCC(=O)N[C@@H](C)C(=O)N[C@H](C(=O)N[C@@H](CC(C)C)C(=O)N[C@@H](CCCCN)C(=O)N[C@H](C(=O)N[C@@H](CC(C)C)C(=O)N[C@H](C(=O)N[C@H](C(=O)NCC(=O)N[C@@H](CC(C)C)C(=O)N1CCC[C@H]1C(=O)N[C@@H](C)C(=O)N[C@@H](CC(C)C)C(=O)N[C@H](C(=O)N[C@@H](CO)C(=O)N[C@@H](Cc1c[nH]c2ccccc12)C(=O)N[C@H](C(=O)N[C@@H](CCCCN)C(=O)N[C@@H](CCCNC(=N)N)C(=O)N[C@@H](CCCCN)C(=O)N[C@@H](CCCNC(=N)N)C(=O)N[C@@H](CCC(N)=O)C(=O)N[C@@H](CCC(N)=O)C(N)=O)[C@@H](C)CC)[C@@H](C)CC)[C@@H](C)O)[C@@H](C)O)C(C)C)C(C)C", "note": "[melittin]", "values": [{"measurement": "toxicity, HEK-293", "setting": "HEK-293 cells", "value": "severe toxicity"}, {"measurement": "depolarization of intact CRAB C1", "setting": "intact CRAB C1", "value": 86.4, "unit": "%"}, {"measurement": "toxicity, HaCaT", "setting": "HaCaT cells", "value": "severe toxicity"}, {"measurement": "GM (mean MIC of Gram-negative bacterial strains)", "setting": "[1]", "value": 14, "unit": "µg/mL"}, {"measurement": "change of antibacterial activity in the presence of 50% human serum", "setting": "CRAB C1 [2]; 50% human serum in MH media versus MH media, E. coli, A. baumannii, CRAB C1", "value": "lost antibacterial activity considerably"}, {"measurement": "Minimum Inhibitory Concentration, CRAB C1, + Serum (50%)", "setting": "CRAB C1 [2]; 50% human serum in MH medium, 16 h, 37 °C, measure of serum stability", "value": 256, "unit": "µg/mL"}, {"measurement": "Minimum Inhibitory Concentration, A. baumannii, + Serum (50%)", "setting": "A. baumannii", "value": 128, "unit": "µg/mL"}, {"measurement": "Minimum Inhibitory Concentration, CRAB C5", "setting": "CRAB C5", "value": 16, "unit": "µg/mL"}, {"measurement": "Minimum Inhibitory Concentration, CRAB C4", "setting": "CRAB C4", "value": 8, "unit": "µg/mL"}, {"measurement": "Minimum Inhibitory Concentration, CRAB C1, MH Media", "setting": "CRAB C1 [3]; MH media without serum, 37 °C", "value": 16, "unit": "µg/mL"}, {"measurement": "Minimum Inhibitory Concentration, CRAB C1", "setting": "CRAB C1 [3]; [5]", "value": 16, "unit": "µg/mL"}, {"measurement": "Minimum Inhibitory Concentration, A. baumannii, MH Media", "setting": "[4]; MH media without serum, 37 °C", "value": 16, "unit": "µg/mL"}, {"measurement": "Minimum Inhibitory Concentration, A. baumanii", "setting": "[4]; [5]", "value": 16, "unit": "µg/mL"}, {"measurement": "Minimum Inhibitory Concentration, CRAB C3", "setting": "CRAB C3", "value": 16, "unit": "µg/mL"}, {"measurement": "Minimum Inhibitory Concentration, CRAB C2", "setting": "CRAB C2", "value": 16, "unit": "µg/mL"}]}]}
